{"source": "ChEMBL document CHEMBL6177939", "about": "“The role of silicon in drug discovery: a review” (RSC Med Chem, 2024)", "key": {"[1]": {"system": "Mycobacterium tuberculosis", "assay": "Antimycobacterial activity against Mycobacterium tuberculosis H37Rv assessed as inhibition of bacterial growth incubated for 24 hrs by alamar blue assay", "format": "functional"}, "Staphylococcus aureus [2]": {"system": "Staphylococcus aureus", "assay": "Antibacterial activity against Staphylococcus aureus", "format": "functional"}, "Pseudomonas aeruginosa [3]": {"system": "Pseudomonas aeruginosa", "assay": "Antibacterial activity against Pseudomonas aeruginosa", "format": "functional"}, "Escherichia coli [4]": {"system": "Escherichia coli", "assay": "Antibacterial activity against Escherichia coli", "format": "functional"}, "MCF7": {"system": "MCF7", "assay": "Cytotoxicity against human MCF7 cells assessed as reduction in cell viability by XTT assay", "format": "functional, cell-based"}, "Pseudomonas aeruginosa [5]": {"system": "Pseudomonas aeruginosa", "assay": "Antibacterial activity against Pseudomonas aeruginosa ATCC 27853 assessed as reduction in bacterial growth incubated for 24 hrs by CLSI micro-dilution method", "format": "functional"}, "Penicillium chrysogenum": {"system": "Penicillium chrysogenum", "assay": "Antifungal activity against Penicillium chrysogenum ATCC 11709 assessed as reduction in fungal growth incubated for 24 hrs by CLSI micro-dilution method", "format": "functional"}, "HepG2 [6]": {"system": "HepG2", "assay": "Cytotoxicity against human HepG2 cells assessed as reduction in cell viability by XTT assay", "format": "functional, cell-based"}, "Fusarium solani": {"system": "Fusarium solani", "assay": "Antifungal activity against Fusarium solani ATCC 20327 assessed as reduction in fungal growth incubated for 24 hrs by CLSI micro-dilution method", "format": "functional"}, "Bacillus sp.": {"system": "Bacillus sp.", "assay": "Antibacterial activity against Bacillus sp. ATCC 19986 assessed as reduction in bacterial growth incubated for 24 hrs by CLSI micro-dilution method", "format": "functional", "settings": "Bacillus sp. (in: firmicutes)"}, "Aspergillus niger": {"system": "Aspergillus niger", "assay": "Antifungal activity against Aspergillus niger ATCC 16888 assessed as reduction in fungal growth incubated for 24 hrs by broth micro-dilution method", "format": "functional"}, "MDA-MB-435 [7]": {"system": "MDA-MB-435", "assay": "Growth inhibition of human MDA-MB-435 cells measured for 48 hrs by SRB assay", "format": "functional"}, "MDA-MB-435 [8]": {"system": "MDA-MB-435", "assay": "Cytotoxicity against human MDA-MB-435 cells assessed as reduction in cell viability incubated for 48 hrs by SRB assay", "format": "functional, cell-based", "settings": "MDA-MB-435, 48 h"}, "HT-29": {"system": "HT-29", "assay": "Antiproliferative activity against human HT-29 cells assessed as reduction in cell viability incubated for 24 hrs by MTT assay", "format": "functional, cell-based", "settings": "HT-29, 24 h"}, "HeLa": {"system": "HeLa", "assay": "Antiproliferative activity against human Hela cells assessed as reduction in cell viability incubated for 24 hrs by MTT assay", "format": "functional, cell-based"}, "MDA-MB-435 [9]": {"system": "MDA-MB-435", "assay": "Antiproliferative activity against human MDA-MB-435 cells assessed as reduction in cell viability incubated for 24 hrs by MTT assay", "format": "functional, cell-based", "settings": "MDA-MB-435, 24 h"}, "Acinetobacter baumannii": {"system": "Acinetobacter baumannii", "assay": "Antibacterial activity against Acinetobacter baumannii ATCC 19606 assessed as reduction in cell growth incubated for 18 hrs by two-fold serial dilution method", "format": "functional"}, "Escherichia coli [10]": {"system": "Escherichia coli", "assay": "Antibacterial activity against Escherichia coli ATCC 25922 assessed as reduction in cell growth incubated for 18 hrs by two-fold serial dilution method", "format": "functional"}, "Pseudomonas aeruginosa [11]": {"system": "Pseudomonas aeruginosa", "assay": "Antibacterial activity against Pseudomonas aeruginosa ATCC 27853 assessed as reduction in cell growth incubated for 18 hrs by two-fold serial dilution method", "format": "functional"}, "Staphylococcus aureus [12]": {"system": "Staphylococcus aureus", "assay": "Antibacterial activity against Staphylococcus aureus ATCC 25923 assessed as reduction in cell growth incubated for 18 hrs by two-fold serial dilution method", "format": "functional"}, "[13]": {"assay": "Acute toxicity in po dosed mouse assessed as lethal dose", "format": "organism-based", "settings": "in vivo"}, "NIH3T3": {"system": "NIH3T3", "assay": "Cytotoxicity against mouse NIH3T3 cells assessed as reduction in cell growth by measuring lethal concentration for 72 hrs by MTT assay", "format": "toxicity, cell-based", "settings": "nih3t3, 72 h"}, "HT-1080 [14]": {"system": "HT-1080", "assay": "Cytotoxicity against human HT-1080 cells assessed as reduction in cell growth by measuring lethal concentration for 72 hrs by MTT assay", "format": "functional"}, "MG-22A [15]": {"system": "MG-22A", "assay": "Cytotoxicity against mouse MG-22A cells assessed as reduction in cell growth by measuring lethal concentration for 72 hrs by MTT assay", "format": "functional"}, "[16]": {"target": "Angiotensin-converting enzyme (Homo sapiens, UniProt P12821)", "sequence (P12821 whole entry)": "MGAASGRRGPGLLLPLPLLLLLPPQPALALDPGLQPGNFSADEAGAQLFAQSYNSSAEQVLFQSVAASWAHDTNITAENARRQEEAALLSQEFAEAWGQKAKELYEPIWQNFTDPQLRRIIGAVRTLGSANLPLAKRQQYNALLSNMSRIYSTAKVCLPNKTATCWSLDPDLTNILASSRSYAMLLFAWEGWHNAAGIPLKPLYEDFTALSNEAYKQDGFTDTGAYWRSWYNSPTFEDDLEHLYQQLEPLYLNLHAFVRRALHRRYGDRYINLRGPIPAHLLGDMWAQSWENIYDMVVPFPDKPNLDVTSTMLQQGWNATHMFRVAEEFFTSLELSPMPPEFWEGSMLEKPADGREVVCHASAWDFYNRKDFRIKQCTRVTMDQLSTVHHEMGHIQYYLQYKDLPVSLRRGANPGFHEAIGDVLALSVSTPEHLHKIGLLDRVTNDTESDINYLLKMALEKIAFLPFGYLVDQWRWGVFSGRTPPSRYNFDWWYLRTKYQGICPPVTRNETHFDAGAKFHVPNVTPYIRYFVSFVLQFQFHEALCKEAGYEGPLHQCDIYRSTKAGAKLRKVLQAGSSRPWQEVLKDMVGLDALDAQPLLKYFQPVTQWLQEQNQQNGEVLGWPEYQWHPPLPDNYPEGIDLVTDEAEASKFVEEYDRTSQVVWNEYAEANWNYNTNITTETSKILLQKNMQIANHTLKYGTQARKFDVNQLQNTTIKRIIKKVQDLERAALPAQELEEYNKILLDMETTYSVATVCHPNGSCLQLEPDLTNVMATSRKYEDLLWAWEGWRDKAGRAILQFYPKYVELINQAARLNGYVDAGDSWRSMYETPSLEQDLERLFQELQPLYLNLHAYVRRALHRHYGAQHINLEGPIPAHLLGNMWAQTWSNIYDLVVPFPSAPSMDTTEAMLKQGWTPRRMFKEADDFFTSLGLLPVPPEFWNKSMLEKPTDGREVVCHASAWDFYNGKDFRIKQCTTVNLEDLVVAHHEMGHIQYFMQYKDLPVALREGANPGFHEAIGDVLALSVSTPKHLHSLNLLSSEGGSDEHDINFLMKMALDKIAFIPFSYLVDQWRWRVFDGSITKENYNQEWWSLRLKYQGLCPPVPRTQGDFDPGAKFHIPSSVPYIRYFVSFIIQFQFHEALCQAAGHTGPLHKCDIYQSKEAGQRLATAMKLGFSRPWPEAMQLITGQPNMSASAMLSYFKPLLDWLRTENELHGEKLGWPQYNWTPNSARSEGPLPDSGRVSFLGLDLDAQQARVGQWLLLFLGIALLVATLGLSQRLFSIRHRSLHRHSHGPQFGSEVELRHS", "assay": "Inhibition of ACE (unknown origin) using N-[3-(2-furyl)-acryloyl]- L -phenylalanylglycylglycin as substrate incubated for 5 mins"}, "Aedes aegypti": {"system": "Aedes aegypti", "assay": "[…] activity against Aedes aegypti assessed as protection time at 0.5 microg/cm", "format": "functional"}, "P388": {"system": "P388", "assay": "Antiproliferative activity against mouse P388 cells", "format": "functional, cell-based"}, "HT-1080 [17]": {"system": "HT-1080", "assay": "Cytotoxicity against human HT-1080 cells assessed as reduction in cell growth measured for 72 hrs by MTT assay", "format": "functional, cell-based", "settings": "HT-1080, 72 h"}, "MG-22A [18]": {"system": "MG-22A", "assay": "Cytotoxicity against mouse MG-22A cells assessed as reduction in cell growth measured for 72 hrs by MTT assay", "format": "functional, cell-based"}, "HepG2 [19]": {"system": "HepG2", "assay": "Antiproliferative activity against human HepG2 cells", "format": "functional, cell-based"}}, "data": [{"smiles": "C[Si]1(C)CCN(C(=O)/C=C/c2ccc3c(c2)OCO3)CC1", "values": [{"measurement": "MIC", "setting": "[1]", "value": 50, "unit": "µg/mL"}]}, {"smiles": "COc1cc(/C=N/CCC[Si](OC)(OC)OC)ccc1OCc1cn(CCOc2ccccc2[N+](=O)[O-])nn1", "values": [{"measurement": "MIC", "setting": "Staphylococcus aureus [2]", "value": 1.87, "unit": "µg/mL"}, {"measurement": "MIC", "setting": "Pseudomonas aeruginosa [3]", "value": 15, "unit": "µg/mL"}, {"measurement": "MIC", "setting": "Escherichia coli [4]", "value": 15, "unit": "µg/mL"}]}, {"smiles": "Nc1ccc(O)c(/C=N/CCC[Si-]234OCC[N+]2(CCO3)CCO4)c1", "note": "(configuration not stated)", "values": [{"measurement": "IC50", "setting": "MCF7", "value": 65, "unit": "µg/mL"}, {"measurement": "MIC", "setting": "Pseudomonas aeruginosa [5]", "value": 1.2, "unit": "µg/mL"}, {"measurement": "MIC", "setting": "Penicillium chrysogenum", "value": 1.2, "unit": "µg/mL"}, {"measurement": "IC50", "setting": "HepG2 [6]", "value": 150, "unit": "µg/mL"}, {"measurement": "MIC", "setting": "Fusarium solani", "value": 1.2, "unit": "µg/mL"}, {"measurement": "MIC", "setting": "Bacillus sp.", "value": 1.2, "unit": "µg/mL"}, {"measurement": "MIC", "setting": "Aspergillus niger", "value": 1.2, "unit": "µg/mL"}]}, {"smiles": "C[Si]1(C)CCN(C(=O)/C=C/C=C/c2ccc3c(c2)OCO3)CC1", "values": [{"measurement": "MIC", "setting": "[1]", "value": 50, "unit": "µg/mL"}]}, {"smiles": "CC[C@@]1(O)C(=O)OCc2c1cc1n(c2=O)Cc2c-1nc1ccc(O)cc1c2[Si](C)(C)C(C)(C)C", "note": "[AR-67]", "values": [{"measurement": "GI50", "setting": "MDA-MB-435 [7]", "value": 21, "unit": "nM"}, {"measurement": "IC50", "setting": "MDA-MB-435 [8]", "value": 14, "unit": "nM"}]}, {"smiles": "CC1C[N+]23CC(C)O[Si-]2(CCC/N=C/c2cccc([N+](=O)[O-])c2)(O1)OC(C)C3", "note": "(configuration not stated)", "values": [{"measurement": "IC50", "setting": "HT-29", "value": 12.3, "unit": "µg/mL"}, {"measurement": "IC50", "setting": "HeLa", "value": 11.8, "unit": "µg/mL"}, {"measurement": "IC50", "setting": "MDA-MB-435 [9]", "value": 12.5, "unit": "µg/mL"}]}, {"smiles": "O=C1c2ccccc2C(=O)N1CCC[Si-]123OCC[N+]1(CCO2)CCO3", "note": "(configuration not stated)", "values": [{"measurement": "MIC", "setting": "Acinetobacter baumannii", "value": 0.2, "unit": "µg/mL"}, {"measurement": "MIC", "setting": "Escherichia coli [10]", "value": 0.2, "unit": "µg/mL"}, {"measurement": "MIC", "setting": "Pseudomonas aeruginosa [11]", "value": 0.2, "unit": "µg/mL"}, {"measurement": "MIC", "setting": "Staphylococcus aureus [12]", "value": 0.2, "unit": "µg/mL"}]}, {"smiles": "CCCC(C)(COC(N)=O)COC(N)=O", "note": "[MEPROBAMATE]", "values": [{"measurement": "LD50", "setting": "[13]", "value": 700, "unit": "mg/kg"}]}, {"smiles": "Cc1c(CN2CCN(C)CC2)cc(-c2ccc(Cl)cc2)n1-c1ccc(Cl)cc1", "values": [{"measurement": "MIC", "setting": "[1]", "value": 1.7, "unit": "µM"}]}, {"smiles": "CCCCCCCCCCOCC[N+]1(CCC[Si](C)(C)C)CCc2ccccc2C1.[I-]", "note": "(configuration not stated)", "values": [{"measurement": "LC50", "setting": "NIH3T3", "value": 0.1, "unit": "µg/mL"}, {"measurement": "LC50", "setting": "HT-1080 [14]", "value": 0.1, "unit": "µg/mL"}, {"measurement": "LC50", "setting": "MG-22A [15]", "value": 0.1, "unit": "µg/mL"}]}, {"smiles": "CC(C)CC(NC(=O)c1ccccc1)[Si](C)(O)CC(C)C(=O)N1CCC[C@H]1C(=O)O", "note": "(mixture of isomers)", "values": [{"measurement": "IC50", "setting": "[16]", "value": 14, "unit": "nM"}]}, {"smiles": "CCC[Si](C)(COC(N)=O)COC(N)=O", "values": [{"measurement": "LD50", "setting": "[13]", "value": "> 1000", "unit": "mg/kg"}]}, {"smiles": "CCN(CC)C(=O)c1cccc(C)c1", "note": "[DIETHYLTOLUAMIDE]", "values": [{"measurement": "Time", "setting": "Aedes aegypti", "value": 616, "unit": "min"}]}, {"smiles": "CC1(C)CCN(C(=O)C2=CCCCC2)CC1", "values": [{"measurement": "Time", "setting": "Aedes aegypti", "value": 520, "unit": "min"}]}, {"smiles": "C=C1C[C@](OC)([C@H](O)C(=O)N[C@H]2OCO[C@H]3[C@@H]2O[C@H](C[C@@H](CO)OC)C(C)(C)[C@@H]3OC)O[C@H](C)[C@@H]1C", "note": "[MYCALAMIDE B]", "values": [{"measurement": "IC50", "setting": "P388", "value": 0.1, "unit": "ng/mL"}]}, {"smiles": "CCCCCCCCCC[Si](C)(CCCCCCCCCC)OCC[N+](C)(C)C.[I-]", "values": [{"measurement": "IC50", "setting": "HT-1080 [17]", "value": 0.3, "unit": "µg/mL"}, {"measurement": "IC50", "setting": "MG-22A [18]", "value": 1, "unit": "µg/mL"}]}, {"smiles": "CC[C@@]1(O)C(=O)OCc2c1cc1n(c2=O)Cc2cc3ccccc3nc2-1", "note": "[CAMPTOTHECIN]", "values": [{"measurement": "IC50", "setting": "MDA-MB-435 [8]", "value": 15, "unit": "nM"}]}, {"smiles": "COc1ccc([Si](C)(C)[C@@H]2[C@H](CC(=O)N3CCC[C@H]3CO)O[C@@]3(C(=O)N(Cc4cccc(I)c4)c4ccccc43)[C@@H]2C)cc1", "values": [{"measurement": "EC50", "setting": "HepG2 [19]", "value": 16.6, "unit": "µM"}]}, {"smiles": "CCCCCCCCCOCCc1sc[n+](CCC[Si](C)(C)C)c1C.[I-]", "values": [{"measurement": "LC50", "setting": "NIH3T3", "value": 0.1, "unit": "µg/mL"}, {"measurement": "LC50", "setting": "HT-1080 [14]", "value": 0.1, "unit": "µg/mL"}, {"measurement": "LC50", "setting": "MG-22A [15]", "value": 0.1, "unit": "µg/mL"}]}, {"smiles": "CC1C[N+]23CC(C)O[Si-]2(CCCN2C(=O)c4ccccc4C2=O)(O1)OC(C)C3", "note": "(configuration not stated)", "values": [{"measurement": "MIC", "setting": "Acinetobacter baumannii", "value": 0.2, "unit": "µg/mL"}, {"measurement": "MIC", "setting": "Escherichia coli [10]", "value": 0.2, "unit": "µg/mL"}, {"measurement": "MIC", "setting": "Pseudomonas aeruginosa [11]", "value": 0.2, "unit": "µg/mL"}, {"measurement": "MIC", "setting": "Staphylococcus aureus [12]", "value": 0.2, "unit": "µg/mL"}]}]}
